Consider twelve molecules from PubChem BioAssay (NCI).

Test systems include HCT-116 colon; NCI-H226 lung; IGROV1 ovarian; 786-0 renal; SK-MEL-2 melanoma; TK-10 renal; M14 melanoma; A498 renal; U251 CNS; MOLT-4 leukemia.
Assay in all cases: NCI tumour cell line growth inhibition, 48 h

The structures appear in SMILES notation. Where “and” joins values, the source holds several entries; their conditions need not be identical. Equal values may be shown once.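 Interpolation was linear, between the two tested concentrations surrounding the appropriate level; five concentrations were tested over 48 hours in 96-well plates. GI50 is the concentration that inhibits growth by half. TGI is the concentration that stops growth completely.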

Take `CCCCCCCCCCCCCB(O)O`: in the experiment with HCT-116 colon, the GI50 is > 100 µM and 47.8 µM. Further, the TGI in the experiment with HCT-116 colon, in the experiment with NCI-H226 lung, in the experiment on IGROV1 ovarian, with 786-0 renal, in the experiment with SK-MEL-2 melanoma and with TK-10 renal was more than 100 µM in each case. The TGI in the experiment with M14 melanoma, in the experiment with A498 renal and with U251 CNS was more than 100 µM throughout.

Consider `CCOCc1cc(=O)c2c(OC)cc3c(c2o1)CCC(C)(C)O3`, for which the TGI in the experiment on HCT-116 colon, with IGROV1 ovarian, in the experiment on 786-0 renal, in the experiment with SK-MEL-2 melanoma, in the experiment with TK-10 renal and in the experiment on M14 melanoma was more than 100 µM in each case. For the same molecule, the TGI in the experiment on U251 CNS and in the experiment with MOLT-4 leukemia was more than 100 µM throughout.

In the case of `COC(=O)C(=O)C(C(=O)C(=O)Nc1cc(C)ccc1C)c1nc2ccc(C(=O)c3ccccc3)cc2[nH]c1=O` (stereo not drawn), the TGI in the experiment on HCT-116 colon, in the experiment on NCI-H226 lung, in the experiment with IGROV1 ovarian, with 786-0 renal, with SK-MEL-2 melanoma and in the experiment on TK-10 renal was more than 100 µM in each case. Further, the TGI with M14 melanoma, with U251 CNS and in the experiment on MOLT-4 leukemia was more than 100 µM each time.

In the case of `COc1ccc(/C=C2\c3cc(OC)c(OC)c(OC)c3CC[C@@H]2O)cc1F`, the GI50 was 0.331 µM in the experiment on HCT-116 colon; 0.812 µM in the experiment with IGROV1 ovarian; 0.492 µM in the experiment on 786-0 renal; 0.274 µM in the experiment with M14 melanoma; 0.152 µM in the experiment on A498 renal; 0.469 µM in the experiment on U251 CNS. Besides, the GI50 in the experiment with MOLT-4 leukemia is 0.956 µM. In addition, the TGI in the experiment on HCT-116 colon is more than 100 µM; in the experiment on IGROV1 ovarian, more than 100 µM; in the experiment with 786-0 renal it was more than 100 µM; in the experiment on M14 melanoma, more than 100 µM; in the experiment with A498 renal, 0.697 µM; with U251 CNS, 33.2 µM. In addition, the TGI in the experiment on MOLT-4 leukemia was more than 100 µM.

Turning to `CCCCN(CCCC)CCCn1cnc2ncccc2c1=O`, the TGI with HCT-116 colon, with NCI-H226 lung, in the experiment with IGROV1 ovarian, in the experiment on 786-0 renal, in the experiment with SK-MEL-2 melanoma and with TK-10 renal was more than 100 µM each time. Also, the TGI in the experiment with M14 melanoma, in the experiment with U251 CNS and in the experiment with MOLT-4 leukemia was more than 100 µM throughout.

On to `Cc1ccc(S(=O)(=O)Nc2ccc(-c3cc(-c4cccc(F)c4)c(C#N)c(N)n3)cc2)cc1`, for which the GI50 is 1.69 µM in the experiment with HCT-116 colon; 1.35 µM in the experiment on IGROV1 ovarian; 1.71 µM in the experiment with 786-0 renal; 1.96 µM in the experiment with SK-MEL-2 melanoma; 1.66 µM in the experiment with TK-10 renal; 2.01 µM with M14 melanoma. Moreover, the GI50 in the experiment on A498 renal is 3.7 µM; with U251 CNS it was 2.75 µM; in the experiment with MOLT-4 leukemia, 3.2 µM. Also, the TGI in the experiment on HCT-116 colon amounted to 3.23 µM; with IGROV1 ovarian, 2.75 µM; in the experiment with 786-0 renal it was 3.12 µM; with SK-MEL-2 melanoma it was 4.22 µM; in the experiment on TK-10 renal it was 3.17 µM; with M14 melanoma it was 4.38 µM. The TGI was 16.2 µM in the experiment on A498 renal, 9.62 µM with U251 CNS and 30.2 µM with MOLT-4 leukemia.

With `CC(C)C1N2CCCCC2[C@@H]2c3[nH]c4ccccc4c3CCN12` (stereo partly drawn), the TGI with HCT-116 colon, in the experiment on IGROV1 ovarian, in the experiment with 786-0 renal, with SK-MEL-2 melanoma, in the experiment on M14 melanoma and in the experiment with A498 renal was more than 100 µM in each case. Besides, the TGI with U251 CNS and with MOLT-4 leukemia was more than 100 µM throughout.

For `CCCCCC[C@H](C)NC(=O)c1ccc(Nc2nc3ccccc3c3occc23)cc1`, the GI50 was 2.14 µM in the experiment on HCT-116 colon; 2.46 µM in the experiment on IGROV1 ovarian; 2.35 µM in the experiment on 786-0 renal; 2.64 µM with SK-MEL-2 melanoma; 5.26 µM with TK-10 renal; 2.25 µM in the experiment on M14 melanoma. Also, the values for the GI50 in the experiment with A498 renal, with U251 CNS and in the experiment on MOLT-4 leukemia were 2.74 µM, 19 µM and 3.4 µM, respectively. For the same molecule, the TGI in the experiment on HCT-116 colon came to 6.43 µM; in the experiment on IGROV1 ovarian, 5.77 µM; in the experiment on 786-0 renal, 7.71 µM; in the experiment on SK-MEL-2 melanoma it was 6.83 µM; in the experiment with TK-10 renal it was 33.5 µM; in the experiment on M14 melanoma, 5.37 µM. Also, the TGI is 7.54 µM with A498 renal, more than 100 µM in the experiment with U251 CNS and more than 100 µM in the experiment on MOLT-4 leukemia.

Consider `COc1cnc2c(c1)C(=O)c1c-2n(CCCN2CCNCC2)c(=O)c2cc([N+](=O)[O-])ccc12`, for which the GI50 in the experiment on HCT-116 colon is 0.096 µM; in the experiment on 786-0 renal, 0.209 µM; with SK-MEL-2 melanoma it was 2.07 µM; in the experiment with TK-10 renal, 1.11 µM; with M14 melanoma it was 0.279 µM; in the experiment with A498 renal, 0.0863 µM. Also, the GI50 with U251 CNS was 0.167 µM; with MOLT-4 leukemia it was 0.0365 µM. The TGI with HCT-116 colon is 1.78 µM; with 786-0 renal, 1.16 µM; in the experiment on SK-MEL-2 melanoma it was 3.95 µM; in the experiment with TK-10 renal, 2.39 µM; in the experiment with M14 melanoma, 1.49 µM; in the experiment on A498 renal, 2.19 µM. The TGI in the experiment with U251 CNS stood at 1.16 µM; with MOLT-4 leukemia, 1.05 µM.

`CC(=O)O[C@H]1CC2C=CC3C(CCC31)O2` (stereo partly drawn): the TGI in the experiment on IGROV1 ovarian, with 786-0 renal, with TK-10 renal, in the experiment on M14 melanoma, with U251 CNS and with MOLT-4 leukemia was more than 100 µM each time.

For `COc1ccc2nc(NC(=O)C(=O)NNC(=O)c3ccncc3)sc2c1`, the TGI with HCT-116 colon, in the experiment with NCI-H226 lung, with IGROV1 ovarian, in the experiment with 786-0 renal, with TK-10 renal and with M14 melanoma was more than 100 µM throughout. Further, the TGI in the experiment on A498 renal and in the experiment with U251 CNS was more than 100 µM throughout.

With `COC[C@H](C)N=CN1CCc2ccccc2C1(Cc1ccccc1)Cc1ccccc1`, the TGI in the experiment with HCT-116 colon was 29.7 µM; in the experiment with NCI-H226 lung, 37 µM; in the experiment with IGROV1 ovarian, more than 100 µM; with 786-0 renal, 30.3 µM; in the experiment on SK-MEL-2 melanoma it was 23.6 µM; in the experiment on TK-10 renal, 38.8 µM. The TGI in the experiment with M14 melanoma was 22.7 µM; in the experiment on U251 CNS it was 26.9 µM; in the experiment on MOLT-4 leukemia, 37.9 µM.
